From patent US20120183579A1, “COMPOUNDS FOR INFLAMMATION AND IMMUNE-RELATED USES” (Synta Pharmaceuticals Corp., priority 2008, published 2012) come the findings set out here.

Structures can show the parent of a compound that is named as a salt.

The first assay concerns IL-2. The assay can be described thus: Inhibition of IL-2 production (Jurkat cells activated with PHA, ELISA). In kind it is cell-based. The settings on record: Homo sapiens, Jurkat, Jurkat/PHA/1% FBS; activity class. On the procedure: Jurkat cells were placed in a 96 well plate (0.5 million cells per well in 1% FBS medium), and then a test compound of this invention was added at different concentrations. After 10 minutes, the cells were activated with PHA (final concentration 2.5 μg/mL) and incubated for 20 hours at 37° C. under 5% CO2. The final volume was 200 μL. Following incubation, the cells were centrifuged, and the supernatants collected and stored at −70° C. prior to assaying for IL-2 production. A commercial ELISA kit (IL-2 Eli-pair, Diaclone Research, Besancon, France) was used to detect production of IL-2, from which dose response curves were obtained. The IC50 value was calculated as the concentration at which 50% of maximum IL-2 production after stimulation was inhibited versus a non-stimulation control.
For `CC1=C(c2cnc(NC(=O)c3c(F)cccc3F)cn2)CN(c2nc(-c3cccnc3)cs2)CC1` [Compound 17, 2,6-difluoro-N-(5-(4-methyl-1-(4-(pyridin-3-yl)thiazol-2-yl)-1,2,5,6-tetrahydropyridin-3-yl)pyrazin-2-yl)benzamide], the IC50 (commonly the point on the concentration scale where inhibition reaches its midpoint) is 50 to 100 nM.

Still in this assay, the particulars now being: Homo sapiens, Jurkat, Jurkat/PHA/1% FBS; numeric values.
As for `CC1=C(c2ccc(NC(=O)c3ccccc3F)cc2)CN(c2nccs2)CC1` [Compound 7, 2-fluoro-N-(4-(4-methyl-1-(thiazol-2-yl)-1,2,5,6-tetrahydropyridin-3-yl)phenyl)benzamide], the IC50 is 13 nM.
On the same count and under the same terms, to `Cn1nnc(N2CCC(C3CC3)=C(c3ccc(NC(=O)c4c(F)cccc4F)cc3)C2)n1` [Compound 8, N-(4-(4-cyclopropyl-1-(2-methyl-2H-tetrazol-5-yl)-1,2,5,6-tetrahydropyridin-3-yl)phenyl)-2,6-difluorobenzamide] belongs 14 nM; to `CC1=C(c2cnc(NC(=O)c3c(F)cccc3F)cn2)CN(c2ncc(C)s2)CC1` [Compound 9, 2,6-difluoro-N-(5-(4-methyl-1-(5-methylthiazol-2-yl)-1,2,5,6-tetrahydropyridin-3-yl)pyrazin-2-yl)benzamide hydrochloride], 15 nM; to `CC1=C(c2cnc(NC(=O)c3c(F)cccc3F)cn2)CN(c2ncccc2C#N)CC1` [Compound 10, N-(5-(1-(3-cyanopyridin-2-yl)-4-methyl-1,2,5,6-tetrahydropyridin-3-yl)pyrazin-2-yl)-2,6-difluorobenzamide], 18 nM.
`O=C(Nc1cnc(C2=C(Cl)CCN(c3nccs3)C2)cn1)c1c(F)cccc1F` [Compound 12, N-(5-(4-chloro-1-(thiazol-2-yl)-1,2,5,6-tetrahydropyridin-3-yl)pyrazin-2-yl)-2,6-difluorobenzamide hydrochloride] showed an IC50 of 19 nM.
`CC1=C(c2cnc(NC(=O)c3cc(F)ccc3C)cn2)CN(c2ncccc2F)CC1` [Compound 13, 5-fluoro-N-(5-(1-(3-fluoropyridin-2-yl)-4-methyl-1,2,5,6-tetrahydropyridin-3-yl)pyrazin-2-yl)-2-methylbenzamide] displayed an IC50 of 30 nM.
`CC1=C(c2cnc(NC(=O)c3cc(F)ccc3Cl)cn2)CN(c2ncccc2F)CC1` [Compound 16, 2-chloro-5-fluoro-N-(5-(1-(3-fluoropyridin-2-yl)-4-methyl-1,2,5,6-tetrahydropyridin-3-yl)pyrazin-2-yl)benzamide]: the IC50 was determined as 30 nM.
The same measure, in the same setting: for `CCn1nnc(N2CCC(C)=C(c3cnc(NC(=O)c4c(F)cccc4Cl)cn3)C2)n1` [Compound 18, 2-chloro-N-(5-(1-(2-ethyl-2H-tetrazol-5-yl)-4-methyl-1,2,5,6-tetrahydropyridin-3-yl)pyrazin-2-yl)-6-fluorobenzamide] the value was 32 nM; for `CC1=C(c2cnc(NC(=O)c3c(F)cccc3F)cn2)CN(c2ncc(F)cc2F)CC1` [Compound 19, N-(5-(1-(3,5-difluoropyridin-2-yl)-4-methyl-1,2,5,6-tetrahydropyridin-3-yl)pyrazin-2-yl)-2,6-difluorobenzamide], 36 nM.
Same read-out and setting: to `CC1=C(c2ccc(NC(=O)c3c(F)cccc3F)cc2)CN(c2nnn(C)n2)CC1` [Compound 20, 2,6-difluoro-N-(4-(4-methyl-1-(2-methyl-2H-tetrazol-5-yl)-1,2,5,6-tetrahydropyridin-3-yl)phenyl)benzamide] belongs 52 nM; to `CC1=C(c2cnc(NC(=O)c3cc(F)ccc3Cl)cn2)CN(c2nccs2)CC1` [Compound 21, 2-chloro-5-fluoro-N-(5-(4-methyl-1-(thiazol-2-yl)-1,2,5,6-tetrahydropyridin-3-yl)pyrazin-2-yl)benzamide], 55 nM.
Still for that read-out and setting: to `CC1=C(c2cnc(NC(=O)c3ccc(F)cc3F)cn2)CN(c2nccs2)CC1` [Compound 22, 2,4-difluoro-N-(5-(4-methyl-1-(thiazol-2-yl)-1,2,5,6-tetrahydropyridin-3-yl)pyrazin-2-yl)benzamide] belongs 10 nM.
`CC1=C(c2ccc(NC(=O)c3ccncc3F)cc2)CN(c2ncccc2F)CC1` [Compound 23, 3-fluoro-N-(4-(1-(3-fluoropyridin-2-yl)-4-methyl-1,2,5,6-tetrahydropyridin-3-yl)phenyl)isonicotinamide] came in with an IC50 of 14 nM.
Same read-out and setting: for `CC1=C(c2cnc(NC(=O)c3c(F)cccc3F)cn2)CN(c2ncccc2O)CC1` [Compound 24, 2,6-difluoro-N-(5-(1-(3-hydroxypyridin-2-yl)-4-methyl-1,2,5,6-tetrahydropyridin-3-yl)pyrazin-2-yl)benzamide] the value was 14 nM; for `CC1=C(c2ccc(NC(=O)c3ccccc3Cl)cc2)CN(c2nnn(C)n2)CC1` [Compound 25, 2-chloro-N-(4-(4-methyl-1-(2-methyl-2H-tetrazol-5-yl)-1,2,5,6-tetrahydropyridin-3-yl)phenyl)benzamide], 17 nM; for `CC1=C(c2ccc(NC(=O)c3c(F)cncc3F)cc2)CN(c2ccccn2)CC1` [Compound 26, 3,5-difluoro-N-(4-(4-methyl-1-(pyridin-2-yl)-1,2,5,6-tetrahydropyridin-3-yl)phenyl)isonicotinamide hydrochloride], 18 nM.
The same measure, in the same setting: to `CC1=C(c2ccc(NC(=O)c3ccncc3Cl)cc2)CN(c2nnn(C)n2)CC1` [Compound 27, 3-chloro-N-(4-(4-methyl-1-(2-methyl-2H-tetrazol-5-yl)-1,2,5,6-tetrahydropyridin-3-yl)phenyl)isonicotinamide] belongs 19 nM; to `O=C(Nc1ccc(C2=C(Cl)CCN(c3nccs3)C2)cc1)c1c(F)cccc1F` [Compound 28, N-(4-(4-chloro-1-(thiazol-2-yl)-1,2,5,6-tetrahydropyridin-3-yl)phenyl)-2,6-difluorobenzamide], 19 nM; to `CC1=C(c2ccc(NC(=O)c3cccc(F)c3Cl)cc2)CN(c2nnn(C)n2)CC1` [Compound 29, 2-chloro-3-fluoro-N-(4-(4-methyl-1-(2-methyl-2H-tetrazol-5-yl)-1,2,5,6-tetrahydropyridin-3-yl)phenyl) benzamide], 20 nM.
The same measure, in the same setting: for `CC1=C(c2ccc(NC(=O)c3ccccc3F)cc2)CN(c2nnn(C)n2)CC1` [Compound 30, 2-fluoro-N-(4-(4-methyl-1-(2-methyl-2H-tetrazol-5-yl)-1,2,5,6-tetrahydropyridin-3-yl)phenyl)benzamide] the value was 21 nM; for `CC1=C(c2cnc(NC(=O)c3cnccc3C)cn2)CN(c2ncccc2F)CC1` [Compound 31, N-(5-(1-(3-fluoropyridin-2-yl)-4-methyl-1,2,5,6-tetrahydropyridin-3-yl)pyrazin-2-yl)-4-methylnicotinamide], 21 nM; for `CC1=C(c2ccc(NC(=O)c3c(F)cccc3F)cc2)CN(c2ccccn2)CC1` [Compound 33, 2,6-difluoro-N-(4-(4-methyl-1-(pyridin-2-yl)-1,2,5,6-tetrahydropyridin-3-yl)phenyl)benzamide], 22 nM.
As for `Cn1nnc(N2CCC(Cl)=C(c3ccc(NC(=O)c4c(F)cccc4F)cc3)C2)n1` [Compound 34, N-(4-(4-chloro-1-(2-methyl-2H-tetrazol-5-yl)-1,2,5,6-tetrahydropyridin-3-yl)phenyl)-2,6-difluorobenzamide], 22 nM corresponded to half-maximal inhibition (IC50).
Still for that read-out and setting: to `CC1=C(c2cnc(NC(=O)c3ccccc3Cl)cn2)CN(c2nccnc2Cl)CC1` [Compound 35, 2-chloro-N-(5-(1-(3-chloropyrazin-2-yl)-4-methyl-1,2,5,6-tetrahydropyridin-3-yl)pyrazin-2-yl)benzamide] belongs 23 nM; to `CC1=C(c2ccc(NC(=O)c3cnccc3C)cc2)CN(c2ncccc2F)CC1` [Compound 36, N-(4-(1-(3-fluoropyridin-2-yl)-4-methyl-1,2,5,6-tetrahydropyridin-3-yl)phenyl)-4-methylnicotinamide], 24 nM; to `CC1=C(c2ccc(NC(=O)c3cccc(F)c3C)nc2)CN(c2nnn(C)n2)CC1` [Compound 37, 3-fluoro-2-methyl-N-(5-(4-methyl-1-(2-methyl-2H-tetrazol-5-yl)-1,2,5,6-tetrahydropyridin-3-yl)pyridin-2-yl) benzamide], 24 nM.
`CC1=C(c2cnc(NC(=O)c3c(F)cccc3F)cn2)CN(c2ccncc2F)CC1` [Compound 38, 2,6-difluoro-N-(5-(1-(3-fluoropyridin-4-yl)-4-methyl-1,2,5,6-tetrahydropyridin-3-yl)pyrazin-2-yl)benzamide] came in with an IC50 of 26 nM.
`CC1=C(c2ccc(NC(=O)c3sccc3C)cc2)CN(c2nccs2)CC1` [Compound 39, 3-methyl-N-(4-(4-methyl-1-(thiazol-2-yl)-1,2,5,6-tetrahydropyridin-3-yl)phenyl)thiophene-2-carboxamide] had an IC50 of 27 nM.
Still for that read-out and setting: for `CC1=C(c2cnc(NC(=O)c3cc(F)ccc3F)cn2)CN(c2ncccc2F)CC1` [Compound 40, 2,5-difluoro-N-(5-(1-(3-fluoropyridin-2-yl)-4-methyl-1,2,5,6-tetrahydropyridin-3-yl)pyrazin-2-yl)benzamide] the value was 27 nM.
`CC1=C(c2ccc(NC(=O)c3ccncc3C)cc2)CN(c2ncccc2F)CC1` [Compound 41, N-(4-(1-(3-fluoropyridin-2-yl)-4-methyl-1,2,5,6-tetrahydropyridin-3-yl)phenyl)-3-methylisonicotinamide] displayed an IC50 of 28 nM.

Staying with this assay, now noted: Jurkat/PHA/1% FBS; numeric values; hydrochloride.
Consider `O=C(Nc1ccc(C2=C(Cl)CCN(c3nccs3)C2)cc1)c1c(F)cccc1F` [Compound 32, N-(4-(4-chloro-1-(thiazol-2-yl)-1,2,5,6-tetrahydropyridin-3-yl)phenyl)-2,6-difluorobenzamide hydrochloride], for which inhibition was half-maximal at 21 nM (IC50).
